IC50 data for 10 molecules are collected here from US20250177363A1, “SUBSTITUTED IMIDAZOPYRIDINYL COMPOUNDS USEFUL AS INHIBITORS OF TLR9” (Bristol-Myers Squibb Company, priority 2022, published 2025).

Assay type in all cases: cell-based
The target in one assay is T1, human TLR7 (Homo sapiens, UniProt Q9NYK1).
T1 construct: host or cells: HEK-Blue cells
T1 sequence (Q9NYK1 27-1049): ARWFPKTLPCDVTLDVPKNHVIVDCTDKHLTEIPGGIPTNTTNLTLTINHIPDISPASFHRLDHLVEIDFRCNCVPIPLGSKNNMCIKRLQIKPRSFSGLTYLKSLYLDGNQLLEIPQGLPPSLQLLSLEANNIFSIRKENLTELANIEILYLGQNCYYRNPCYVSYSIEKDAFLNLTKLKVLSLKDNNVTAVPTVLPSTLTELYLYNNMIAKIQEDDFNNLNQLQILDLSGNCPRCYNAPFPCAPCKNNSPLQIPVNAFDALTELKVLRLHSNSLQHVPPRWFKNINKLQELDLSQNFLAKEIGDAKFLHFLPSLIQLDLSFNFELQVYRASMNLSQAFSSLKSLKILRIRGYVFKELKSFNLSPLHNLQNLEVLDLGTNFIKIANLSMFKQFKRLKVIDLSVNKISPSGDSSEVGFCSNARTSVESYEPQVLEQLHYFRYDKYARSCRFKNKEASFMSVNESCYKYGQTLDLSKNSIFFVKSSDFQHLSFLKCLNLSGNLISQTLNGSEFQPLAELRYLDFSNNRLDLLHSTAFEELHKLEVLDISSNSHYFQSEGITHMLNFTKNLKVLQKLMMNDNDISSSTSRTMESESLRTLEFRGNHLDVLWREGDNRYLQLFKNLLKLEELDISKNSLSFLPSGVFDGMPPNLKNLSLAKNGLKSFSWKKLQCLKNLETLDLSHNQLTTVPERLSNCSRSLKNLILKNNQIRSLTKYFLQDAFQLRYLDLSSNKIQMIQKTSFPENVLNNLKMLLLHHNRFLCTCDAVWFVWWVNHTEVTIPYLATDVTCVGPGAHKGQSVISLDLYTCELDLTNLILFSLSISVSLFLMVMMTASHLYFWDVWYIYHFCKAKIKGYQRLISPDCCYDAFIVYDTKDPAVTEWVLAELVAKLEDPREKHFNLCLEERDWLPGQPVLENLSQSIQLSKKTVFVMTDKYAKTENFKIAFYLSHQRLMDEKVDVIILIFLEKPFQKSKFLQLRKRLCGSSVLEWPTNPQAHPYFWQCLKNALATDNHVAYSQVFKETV
Nature of the assay: TLR7 inhibition reporter assay (HEK-Blue, SEAP). As to conditions: HEK-Blue cells overexpressing human TLR7, ligand gardiquimod 2.5 μM, 22 hour incubation. The protocol: (§1) TLR7/8/9 Inhibition Reporter Assays
(§2) HEK-Blue™-cells (Invivogen) overexpressing human TLR7. TLR8 or TLR9 receptors were used for screening inhibitors of these receptors using an inducible SEAP (secreted embryonic alkaline phosphatase) reporter gene under the control of the IFN-β minimal promoter fused to five NF-κB and AP-1-binding sites. Cells are seeded into Greiner 384 well plates (15000 cells per well) that are pre dispensed (by ECHO) with testing compounds in DMSO to yield a final dose response concentration range of 0.85 nM-50 μM. After a 60 minute compound pre-treatment in 37 degree incubator, the cells are then stimulated with a TLR7 ligand (gardiquimod at a final concentration of 2.5 μM), TLR8 ligand (R848 at a final concentration of 14.25 μM) or TLR9 ligand (ODN2006 at a final concentration of 200 nM) to activate NF-κB and AP-1 which induce the production of SEAP. After a 22 hour incubation at 37° C., 5% CO2, SEAP levels are determined with the addition of HEK-Blue™ Detection reagent (Invivogen), a cell culture medium that allows for detection of SEAP, according to manufacturer's specifications. The percent inhibition is determined as the % reduction in the HEK-Blue signal present in […].
Background: In a reporter assay the amount or activity of a reporter protein is the signal.

Another assay has as its target T2, human TLR9 (Homo sapiens, UniProt Q9NR96).
T2 construct: host or cells: HEK-Blue cells
T2 sequence (Q9NR96 26-1032): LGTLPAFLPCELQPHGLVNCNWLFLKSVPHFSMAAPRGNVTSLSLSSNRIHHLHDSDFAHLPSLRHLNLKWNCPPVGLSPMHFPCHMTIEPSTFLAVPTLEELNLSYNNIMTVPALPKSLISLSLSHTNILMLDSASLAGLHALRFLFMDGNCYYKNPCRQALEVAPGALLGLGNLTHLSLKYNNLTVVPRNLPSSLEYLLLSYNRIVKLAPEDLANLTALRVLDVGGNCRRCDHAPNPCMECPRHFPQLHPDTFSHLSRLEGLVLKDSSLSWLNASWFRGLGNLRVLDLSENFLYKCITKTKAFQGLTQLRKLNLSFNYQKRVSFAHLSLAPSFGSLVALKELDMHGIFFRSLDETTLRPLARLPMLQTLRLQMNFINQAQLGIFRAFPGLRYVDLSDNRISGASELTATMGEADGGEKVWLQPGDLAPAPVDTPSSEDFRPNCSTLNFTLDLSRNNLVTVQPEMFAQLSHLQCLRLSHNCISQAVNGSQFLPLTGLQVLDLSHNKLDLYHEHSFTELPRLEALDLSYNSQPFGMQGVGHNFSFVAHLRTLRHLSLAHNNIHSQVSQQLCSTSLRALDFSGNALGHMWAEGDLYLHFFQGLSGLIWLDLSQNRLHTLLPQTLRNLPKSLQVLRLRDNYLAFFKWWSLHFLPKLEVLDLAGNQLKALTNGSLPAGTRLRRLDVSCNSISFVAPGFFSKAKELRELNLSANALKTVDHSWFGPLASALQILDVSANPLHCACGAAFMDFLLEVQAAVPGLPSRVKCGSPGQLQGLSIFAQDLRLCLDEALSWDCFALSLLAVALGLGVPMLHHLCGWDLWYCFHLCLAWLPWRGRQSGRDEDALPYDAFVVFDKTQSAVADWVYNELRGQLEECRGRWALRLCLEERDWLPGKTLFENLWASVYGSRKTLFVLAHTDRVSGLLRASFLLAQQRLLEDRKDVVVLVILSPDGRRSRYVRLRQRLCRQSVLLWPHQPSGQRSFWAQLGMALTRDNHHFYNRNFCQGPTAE
The experiment in a line: TLR9 inhibition reporter assay (HEK-Blue, SEAP). To be noted: HEK-Blue cells overexpressing human TLR9, ligand ODN2006 200 nM, 22 hour incubation. As for the experimental part:
as §1, §2

Another assay concerns the target T3, human TLR8 (Homo sapiens, UniProt Q9NR97).
T3 construct: host or cells: HEK-Blue cells
T3 sequence (Q9NR97 27-1041): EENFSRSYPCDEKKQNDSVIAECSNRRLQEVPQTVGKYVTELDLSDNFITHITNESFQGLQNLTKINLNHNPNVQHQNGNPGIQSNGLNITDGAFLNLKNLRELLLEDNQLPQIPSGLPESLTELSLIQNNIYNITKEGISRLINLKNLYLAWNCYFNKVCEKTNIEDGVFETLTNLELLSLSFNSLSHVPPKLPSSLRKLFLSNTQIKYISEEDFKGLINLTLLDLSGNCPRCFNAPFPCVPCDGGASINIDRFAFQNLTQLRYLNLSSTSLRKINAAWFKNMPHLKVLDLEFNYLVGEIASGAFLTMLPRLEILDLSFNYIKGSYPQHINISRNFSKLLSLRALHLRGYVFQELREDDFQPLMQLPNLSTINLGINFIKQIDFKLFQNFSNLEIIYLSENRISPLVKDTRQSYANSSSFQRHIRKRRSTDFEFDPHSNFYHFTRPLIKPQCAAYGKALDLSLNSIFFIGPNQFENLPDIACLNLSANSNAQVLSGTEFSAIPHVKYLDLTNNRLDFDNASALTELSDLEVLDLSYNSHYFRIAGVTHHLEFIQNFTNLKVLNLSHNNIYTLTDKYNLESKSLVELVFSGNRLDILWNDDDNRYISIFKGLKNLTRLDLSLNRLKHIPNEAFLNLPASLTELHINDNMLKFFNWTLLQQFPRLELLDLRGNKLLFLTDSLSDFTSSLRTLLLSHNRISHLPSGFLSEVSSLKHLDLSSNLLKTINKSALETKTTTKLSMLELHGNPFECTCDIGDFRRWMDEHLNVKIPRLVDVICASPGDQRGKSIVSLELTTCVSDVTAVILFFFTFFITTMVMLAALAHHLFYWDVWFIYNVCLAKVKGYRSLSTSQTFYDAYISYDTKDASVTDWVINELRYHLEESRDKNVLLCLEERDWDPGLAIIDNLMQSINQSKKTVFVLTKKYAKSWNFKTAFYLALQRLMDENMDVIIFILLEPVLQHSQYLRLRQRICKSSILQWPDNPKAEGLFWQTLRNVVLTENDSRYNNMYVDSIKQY
Nature of the assay: TLR8 inhibition reporter assay (HEK-Blue, SEAP). As to conditions: HEK-Blue cells overexpressing human TLR8, ligand R848 14.25 μM, 22 hour incubation. As for the experimental part: as §1, §2

In general, IC50 refers to the concentration that inhibits the measured activity by half. A lower IC50 goes with higher potency. Consider `Cc1cc(C2CCN(C3CC4CCC(C3)N4C(C)C)CC2)nc2c1nc(-c1ccc(S(C)(=O)=O)cc1)n2C` (single isomer, unassigned) [Example 26, 5-(1-(8-isopropyl-8-azabicyclo[3.2.1]octan-3-yl)piperidin-4-yl)-3,7-dimethyl-2-(4-(methylsulfonyl)phenyl)-3H-imidazo[4,5-b]pyridine], for which the IC50 was 10000 nM against human TLR7, 58 nM against human TLR9 and > 50000 nM against human TLR8.
As for `Cc1cc(C2CCN(C3CC4CCC(C3)N4C(C)C)CC2)nc2c1nc(-c1ccc(S(C)(=O)=O)cc1)n2C` (single isomer, unassigned) [Example 27, 5-(1-(8-isopropyl-8-azabicyclo[3.2.1]octan-3-yl)piperidin-4-yl)-3,7-dimethyl-2-(4-(methylsulfonyl)phenyl)-3H-imidazo[4,5-b]pyridine], the IC50 against human TLR7 turned out to be 3700 nM; at human TLR9 it was 300 nM; against human TLR8, 24000 nM.
`Cc1cc(C2CCN(C3CC4CCC(C3)N4CC(C)C)CC2)nc2c1nc(-c1ccc(S(C)(=O)=O)cc1)n2C` (single isomer, unassigned) [Example 29, 5-(1-(8-isobutyl-8-azabicyclo[3.2.1]octan-3-yl)piperidin-4-yl)-3,7-dimethyl-2-(4-(methylsulfonyl)phenyl)-3H-imidazo[4,5-b]pyridine]: on human TLR9, half-maximal inhibition (IC50) required 550 nM.
`Cc1cc(-c2ccc(CN3CC4(C3)CN(CC(C)C)C4)cc2)nc2c1nc(-c1ccc(S(C)(=O)=O)cc1)n2C1CC1` [Example 4, 3-cyclopropyl-5-(4-((6-isobutyl-2,6-diazaspiro[3.3]heptan-2-yl)methyl)phenyl)-7-methyl-2-(4-(methylsulfonyl)phenyl)-3H-imidazo[4,5-b]pyridine]: the results for the IC50 at human TLR7 and against human TLR9 were 2600 nM and 71 nM, respectively.
For `Cc1cc(-c2ccc(CN3CC4(C3)CN(C3COC3)C4)cc2)nc2c1nc(-c1ccc(S(C)(=O)=O)cc1)n2C1CC1` [Example 6, 3-cyclopropyl-7-methyl-2-(4-(methylsulfonyl)phenyl)-5-(4-((6-(oxetan-3-yl)-2,6-diazaspiro[3.3]heptan-2-yl)methyl)phenyl)-3H-imidazo[4,5-b]pyridine] the same measures were 15000 nM and 730 nM.
With `COc1ccc(-c2nc3ncc(C4CCN(C5CCN(CC(C)C)CC5)CC4)cc3[nH]2)cc1OC` [Example 12, 2-(3,4-dimethoxyphenyl)-6-(1′-isobutyl-[1,4′-bipiperidin]-4-yl)-1H-imidazo[4,5-b]pyridine], on human TLR9, the midpoint of inhibition, the IC50, lay at 74 nM.
Regarding `COc1cc(-c2nc3c(C)cc(-c4ccc(N5CCN(C(C)C)CC5)cc4)nc3n2C)cn2ncnc12` [Example 45, 5-(4-(4-isopropylpiperazin-1-yl)phenyl)-2-(8-methoxy-[1,2,4]triazolo[1,5-a]pyridin-6-yl)-3,7-dimethyl-3H-imidazo[4,5-b]pyridine], the IC50 is 5800 nM on human TLR7 and 140 nM at human TLR9.
With `COc1ccc(-c2nc3ncc(-c4ccc(N5CCN(C(C)C)CC5)cc4)cc3n2C2CC2)cc1OC` [Example 50, 1-cyclopropyl-2-(3,4-dimethoxyphenyl)-6-(4-(4-isopropylpiperazin-1-yl)phenyl)-1H-imidazo[4,5-b]pyridine], the IC50 at human TLR9 was determined as 320 nM; on human TLR8, 3400 nM.
Consider `CS(=O)(=O)c1ccc(-c2nc3ccc(-c4ccc(N5CCN(CCCN6CCOCC6)CC5)cc4)nc3n2C2CC2)cc1` [Example 56, 4-(3-(4-(4-(3-cyclopropyl-2-(4-(methylsulfonyl)phenyl)-3H-imidazo[4,5-b]pyridin-5-yl)phenyl)piperazin-1-yl)propyl) morpholine], for which the half-inhibitory concentration (IC50) was > 50000 nM on human TLR7 and 280 nM against human TLR9.
For `COc1ccc(-c2nc3c(C)cc(-c4ccc(N5CC6(C5)CN(C(C)C)C6)cc4)nc3n2C)cc1OC` [Example 59, 2-(3,4-dimethoxyphenyl)-5-(4-(6-isopropyl-2,6-diazaspiro[3.3]heptan-2-yl)phenyl)-3,7-dimethyl-3H-imidazo[4,5-b]pyridine], the IC50 was 1100 nM at human TLR7 and 860 nM against human TLR9.
